In the assay the test system is primary cultures of rat hippocampal neurons. Briefly: In vitro hippocampal spine density. Format: cell-based. Particulars: chronic treatment (3 doses of 10^−5M), days 14, 17 and 20; FIG. 1. The source says:
In Vitro Hippocampal Spine Density
Dendritic spines are a complex, distinct cellular compartment that protrude from neuronal processes, and act as a source of synaptic contact vital for plasticity, signalling and neuronal integration. Hippocampal spine density increases in the rat brain after learning of an associative task, thereby acting as a substrate for the new memories. Drugs that enhance actin reorganisation in dendritic spines, a requirement for stabilisation of memory, have been proposed for the treatment of memory disorders.
Hippocampi from E18 rat pups were dissected into cold Hank's Basic Salt Solution, rinsed three times and incubated in 5 ml of 0.12% w/v trypsin and 40 μg/ml DNAse (Sigma-Aldrich, St. Louis, USA) for 20 minutes at 37° C. Clumped cells were triturated for one minute with a sterile 1 ml pipette. […] Cell density in a 1/10 dilution was measured using a haemocytometer. […]
For immunohistochemical staining of spines, coverslips were removed from plates and washed in PBS, then incubated in PBSX for 15 minutes to permeabilise membranes. […] Spines highlighted by drebrin immunostaining were counted in Image J. Single neurites were identified and all spines along a fifty micron segment were counted. […]

The structures appear in SMILES notation.

As to `CC(=O)C1=C(C)OC(N)=C(C#N)C1c1ccc(C(=O)O)cc1.N` (stereo not shown) [Test Compound 1], the dendritic spine densities entry is “statistically significant increases”.

For the origin of these results see US11306066B2, “4H-pyran compounds as insulin-regulated aminopeptidase (IRAP) inhibitors” (Monash University, priority 2015, dated 2022).
